ChEMBL document CHEMBL3885861, “Open TG-GATES”

Organism: Rattus norvegicus
Experiment: Open TG-GATES - Regimen: Single
Type: toxicity, organism-based, Sprague-Dawley
Set-up: regimen Single, gender Male, age 6 weeks
Conditions: in vivo, po, 0 mg/kg, route gavage, dose level Control; for KIDNEY_L / KIDNEY_R / KIDNEY_TOTAL: tissue Kidney; for LIVER: tissue Liver; for ALP / ALT / AST / BUN / CRE / Ca / DBIL / GLC / IP / K / LDH / Na / PL / RALB / TBIL / TC / TP / gamma-GTP / TG: tissue Plasma

## O=C(O)c1cn(C2CC2)c2cc(N3CCNCC3)c(F)cc2c1=O [CIPROFLOXACIN]
3 h
  TERMINAL_BW: 180.9 g
  KIDNEY_L: 0.8 g
  KIDNEY_R: 0.9 g
  KIDNEY_TOTAL: 1.7 g
  LIVER: 8.3 g
  ALP: 1050.6 IU/L
  ALT: 38.4 IU/L
  AST: 70.6 IU/L
  BUN: 13.8 mg/dL
  CRE: 0.4 mg/dL
  Ca: 10.8 mg/dL
  DBIL: 0.008 mg/dL
  GLC: 186.6 mg/dL
  IP: 9.5 mg/dL
  K: 4.9 meq/L
  LDH: 92.6 IU/L
  Na: 138.2 meq/L
  PL: 130.8 mg/dL
  RALB: 3.8 g/dL
  TBIL: 0.4 mg/dL
  TC: 73.6 mg/dL
  TP: 5.4 g/dL
  gamma-GTP: 1.8 IU/L
3 h, tissue Blood
  Bas: 0%
  Eos: 0.6%
  Fbg: 202.2 mg/dL
  Hb: 13 g/dL
  MCH: 21.8 pg
  MCV: 65.5 fL
  Mono: 6%
  PT: 12.5 s
  Plat: 103.5 x10_4/uL
  RBC: 598.8 x10_4/ul
  Ret: 9.9%
  WBC: 128.2 x10_2/uL
6 h
  TERMINAL_BW: 182.4 g
  KIDNEY_L: 0.9 g
  KIDNEY_R: 0.9 g
  KIDNEY_TOTAL: 1.8 g
  LIVER: 8.5 g
  ALP: 839.4 IU/L
  ALT: 36.6 IU/L
  BUN: 10.4 mg/dL
  CRE: 0.5 mg/dL
  DBIL: 0.024 mg/dL
  GLC: 186.4 mg/dL
  IP: 9.9 mg/dL
  K: 5.1 meq/L
  LDH: 103.2 IU/L
  Na: 138.2 meq/L
  PL: 136 mg/dL
  RALB: 3.7 g/dL
  TBIL: 0.4 mg/dL
  TC: 80.6 mg/dL
  TG: 42.2 mg/dL
  TP: 5.5 g/dL
  gamma-GTP: 1.4 IU/L
6 h, tissue Blood
  Bas: 0%
  Eos: 0.6%
  Fbg: 211 mg/dL
  Hb: 12.6 g/dL
  Lym: 77%
  MCH: 21.8 pg
  MCV: 66.3 fL
  Mono: 6.8%
  Neu: 15.6%
  PT: 12.5 s
  Plat: 103 x10_4/uL
  RBC: 579 x10_4/ul
  Ret: 10.8%
  WBC: 125 x10_2/uL
9 h
  TERMINAL_BW: 177.8 g
  KIDNEY_L: 0.8 g
  KIDNEY_R: 0.8 g
  KIDNEY_TOTAL: 1.7 g
  LIVER: 7.5 g
  ALP: 766 IU/L
  ALT: 32.4 IU/L
  AST: 68.4 IU/L
  BUN: 10.6 mg/dL
  CRE: 0.5 mg/dL
  Ca: 10.9 mg/dL
  DBIL: 0.056 mg/dL
  GLC: 193 mg/dL
  IP: 10.9 mg/dL
  K: 4.9 meq/L
  LDH: 92.4 IU/L
  Na: 139.2 meq/L
  PL: 120.4 mg/dL
  RALB: 3.8 g/dL
  TBIL: 0.3 mg/dL
  TC: 71.8 mg/dL
  TG: 29 mg/dL
  TP: 5.5 g/dL
  gamma-GTP: 1.4 IU/L
9 h, tissue Blood
  APTT: 17 s
  Bas: 0%
  Eos: 0.4%
  Fbg: 213.4 mg/dL
  Hb: 12.4 g/dL
  Ht: 37.5%
  Lym: 82.6%
  MCH: 21.7 pg
  MCHC: 33.1%
  MCV: 65.6 fL
  Mono: 6.8%
  Neu: 10%
  PT: 11.7 s
  Plat: 116.2 x10_4/uL
  RBC: 572.4 x10_4/ul
  Ret: 10.6%
  WBC: 115.5 x10_2/uL
24 h
  TERMINAL_BW: 194.5 g
  KIDNEY_L: 0.9 g
  KIDNEY_R: 0.9 g
  KIDNEY_TOTAL: 1.8 g
  LIVER: 9.8 g
  ALP: 1038.8 IU/L
  ALT: 47 IU/L
  AST: 74.8 IU/L
  BUN: 17.4 mg/dL
  CRE: 0.5 mg/dL
  Ca: 11.3 mg/dL
  DBIL: 0.074 mg/dL
  GLC: 187.2 mg/dL
  IP: 8.3 mg/dL
  K: 4.7 meq/L
  LDH: 96.8 IU/L
  Na: 138.8 meq/L
  PL: 157.2 mg/dL
  RALB: 4 g/dL
  TBIL: 0.3 mg/dL
  TC: 89 mg/dL
  TG: 89.4 mg/dL
  TP: 5.7 g/dL
  gamma-GTP: 1.2 IU/L
24 h, tissue Blood
  APTT: 16.4 s
  Bas: 0%
  Eos: 1%
  Fbg: 209.2 mg/dL
  Hb: 13.1 g/dL
  Lym: 80%
  MCH: 22 pg
  MCHC: 33.4%
  MCV: 65.8 fL
  Mono: 7.2%
  Plat: 103.8 x10_4/uL
  RBC: 598.2 x10_4/ul
  Ret: 9.7%
  WBC: 132.8 x10_2/uL
